Measurements as given in US20110190235A1, “BORON-CONTAINING SMALL MOLECULES AS ANTIPROTOZOAL AGENTS” (Anacor Pharmaceuticals, Inc., priority 2009, published 2011).
In brackets after ≈: the same amount, converted by molar mass. Like-named read-outs stand apart in the source and are kept apart here.

Tests used:
[1] = test system: bloodstream-form trypanosome T. brucei brucei 427 strain; experiment: Trypanosoma brucei brucei high-throughput in vitro drug sensitivity assay (resazurin); assay type: cell-based; details: for IC50: Trypanosoma brucei, 72 hrs incubation; for Selectivity Index (L929 IC50 / T. b. brucei IC50): T. b. brucei vs L929
[2] = Kinetic solubility by nephelometric (light scattering) method; assay type: physicochemical; details: phosphate buffered saline, aqueous buffer, kinetic from dmso stock, PBS pH 7.4
Protocol: The kinetic solubilities of compounds were estimated using a nephelometric (light scattering) method. Briefly, compounds were serially diluted in DMSO, followed by dilution in PBS pH 7.4. After incubation, the amount of light scattered by a compound at each concentration was measured. […] At concentrations above the solubility limit, the compound precipitates and the precipitant in the well scatters the light, generating a signal. Higher levels of precipitant in a well scatter more light and produce a stronger signal.
A stock solution of compound (25 mM in DMSO) was prepared, and was serially diluted in DMSO in two-fold increments in a row of a 96 well plate to a lowest concentration of 24 μM. A duplicate plate was prepared by transfer of half of the volume of each well to a new plate. Each well containing DMSO solution of the test compound was then diluted further (1:100) with phosphate buffered saline (pH 7.4) to provide aqueous solutions of compound at the following final concentrations: 250, 125, 62.5, 31.3, 15.6, 7.8, 3.9, 2.0, 1.0, 0.5 and 0.2 μM. All liquid handling stages were performed on a Beckman Coulter Biomek NX Laboratory Automation Workstation. Each compound was diluted and tested in duplicate, providing four separate wells at each test concentration.
The test solutions of compound were incubated at room temperature for 90 minutes and then analyzed using a Thermoskan Ascent nephelometric plate reader. The nephelometer protocol included two steps: first, the plate was shaken for 60 seconds at 1200 rpm, then each well of the plate was read in succession with an 800 ms settling delay between measurements. The total measurement time for a single plate was less than 4 minutes.
The four values (in nephelometric units) obtained for each compound at each concentration were averaged and plotted on a log scale versus concentration.

[3] = L929 cytotoxicity evaluation (resazurin); assay type: cell-based; details: mouse, L929 mouse fibroblast cells; 72 hrs incubation; read-out: Cytotox L-929 IC50
In short: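 Mouse L929 fibroblasts (1×10^4/mL seeding, attached overnight) were treated 72 h at 37 °C, 5% CO2 with serially diluted compounds in DMSO in D-MEM/10% FBS. Viability read by resazurin fluorescence after 3–4 h (ex 544/em 590 nm); IC50 from sigmoidal fits of single data points.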

[4] = Pharmacokinetic studies in mice (plasma, brain); assay type: in vivo; details: for half-life: read-out: t½ (converted); for Cmax: normalized to 25 mg/kg (nominal 25 mg/kg); for AUC(0-t) / AUC(0-inf): normalized to 25 mg/kg; for AUC(0-t): read-out: Exposure/trapezoid AUC0-18; for AUC(0-inf): read-out: Exposure/trapezoid AUC0-inf
Protocol: Male CD-1 mice weighing approximately 25 g received the test article (E19 or 82 or E14 or 69) by either intravenous (IV), oral gavage (OG) or intra-peritoneal (IP) routes. Animals in IV group (6-10 animals, 1-2 per time point) received a single bolus injection of approximately 2 mg/kg of the test article. Animals receiving […], or as 4 repeat doses ([…], 1-2 per time point).
All doses were administered as clear colorless solutions in either: 50% (v/v) PEG400:20% (v/v) ethanol:30% (v/v) carboxymethylcellulose (0.5% w/v in sterile water for injection, WFI), or as in situ sodium salts in 5% (m/v) dextrose:2% (v/v) ethanol in DWI. All dose solutions were delivered at 4 mL/kg. Animals were fasted for at least 4 hours before dosing, and for 2 hours after dosing.
Blood samples and brain tissue were sampled from 1 or 2 animals/timepoint/group immediately before dosing and approximately 0.17, 0.5, 1, 2, 3, 4, 6, 8, 12, 18 and 24 hr after dosing for full pharmacokinetic and tissue analysis, or at 0.5, 2 and 4 hours post dosing to assess early-phase CNS disposition.
Bioanalysis for test article in whole blood, plasma or brain tissue was performed by HPLC with tandem mass spectrometry (LC-MSMS). Whole blood and plasma samples were treated with 3 volumes of either acetonitrile or methanol to precipitate plasma proteins. Treated samples were centrifuged and supernatants removed for analysis. Brain tissues were weighed and homogenized mechanically in the presence of 1 volume of phosphate-buffered saline (PBS). The resulting tissue suspensions were then diluted with a further volume of PBS, and then treated in the same manner as whole blood or plasma.
Extracted samples were assayed for test article by means of LC-MSMS employing reversed-phase chromatography coupled to a triple quadrupole mass spectrometer employing electrospray ionization in the positive ion mode. The analytical column was a Phenomenex Luna 3μ C8 50×2 mm, with an online sample purification step performed on a Phenomenex Synergi 4μ Polar RP 50×2 mm column.
Test articles were eluted using a binary mobile phase gradient comprising 5 mM Ammonium Acetate: 0.1% formic acid in either MeOH or H2O.
Non-compartmental analysis of plasma test article concentration versus time was performed in Microsoft Excel to generate pharmacokinetic parameters including: area under the curve (AUC), clearance (as Cl or Cl/F), volume of distribution (Vdss), half-life (t½), and bioavailability (F).

[5] = Pharmacokinetic studies in rats (plasma, brain, CSF); assay type: in vivo; details: for half-life: read-out: t½ (converted); for Cmax / AUC(0-t) / AUC(0-inf): normalized to 25 mg/kg; for AUC(0-t): read-out: Exposure/trapezoid AUC0-18; for AUC(0-inf): read-out: Exposure/trapezoid AUC0-inf
Protocol: Male Sprague Dawley rats weighing approximately 200 g received test article (E19 or 82) as a single oral gavage (OG) dose of approximately 25 mg/kg (approximately 10 animals per group).
All doses were administered as clear colorless solutions as in situ sodium salts in 5% (m/v) dextrose:2% (v/v) ethanol in DWI. All dose solutions were delivered at 2 mL/kg. Animals were fasted for at least 4 hours before dosing, and for 2 hours after dosing.
Blood and CSF samples and brain tissue were sampled from 1 animal/timepoint/group immediately before dosing and approximately 0.5, 1, 2, 3, 4, 6, 8, 12, 18 and 24 hr after dosing for full pharmacokinetic (plasma and CSF) and tissue (Brain) analysis.

[6] = male, CD-1, mouse, brain, oral, mice
[7] = male, CD-1, mouse, plasma, oral, mice
[8] = male, Sprague Dawley, rat, CSF, oral, rats
[9] = male, Sprague Dawley, rat, brain, oral, rats
[10] = male, Sprague Dawley, rat, plasma, oral, rats

With `CC1(C)OB(O)c2cc(NC(=O)c3ccc(Br)cc3Cl)ccc21` [compound 76, 4-Bromo-2-chloro-N-(1-hydroxy-3,3-dimethyl-1,3-dihydro-benzo[c][1,2]oxaborol-6-yl)-benzamide] the IC50 ([1]; read-out: T.b. brucei IC50) was 0.185 µg/mL, the solubility at 90 min [2] was 25 µM (≈ 9.86 µg/mL) and the IC50 at 72 h [3] was over 10 µg/mL.

In the case of `O=C(Nc1ccc2c(c1)B(O)OC21CCC1)c1ccc(F)cc1Cl` [compound 135], the “Selectivity Index (L929 IC50 / T. b. brucei IC50)” value [1] is reported as over 58, the IC50 ([1]; read-out: T. b. brucei IC50) is reported as 498 nM and the IC50 ([1]; read-out: T.b. brucei IC50) is reported as 0.172 µg/mL. For the same molecule, the solubility at 90 min [2] was 25 µM (≈ 8.64 µg/mL) and the IC50 at 72 h [3] was over 10 µg/mL.

`CC1(C)OB(O)c2cc(NC(=O)c3ccc4ccccc4c3)ccc21` [compound 112, Naphthalene-2-carboxylic acid (1-hydroxy-3,3-dimethyl-1,3-dihydrobenzo[c][1,2]oxaborol-6-yl)-amide] gave an IC50 ([1]; read-out: T.b. brucei IC50) of 0.278 µg/mL, a solubility at 90 min [2] of 50 µM (≈ 16.6 µg/mL) and an IC50 at 72 h [3] of over 10 µg/mL.

With `CC1(C)OB(O)c2cc(NC(=O)c3ccc(Cl)cc3Cl)ccc21` [compound 65, 2,4-Dichloro-N-(1-hydroxy-3,3-dimethyl-1,3-dihydro-benzo[c][1,2]oxaborol-6-yl)-benzamide] the IC50 ([1]; read-out: T.b. brucei IC50) was 0.278 µg/mL, the solubility at 90 min [2] was 50 µM (≈ 17.5 µg/mL) and the IC50 at 72 h [3] was over 10 µg/mL.

With `CC1OB(O)c2cc(NC(=O)c3ccc(F)cc3F)ccc21` (centres unmarked) [compound 12, 2,4-Difluoro-N-(1-hydroxy-3-methyl-1,3-dihydro-benzo[c][1,2]oxaborol-6-yl)-benzamide] the “Selectivity Index (L929 IC50 / T. b. brucei IC50)” value [1] was over 123, the IC50 ([1]; read-out: T. b. brucei IC50) was 267 nM and the IC50 ([1]; read-out: T.b. brucei IC50) was 0.081 µg/mL. It also gave a solubility at 90 min [2] of 100 µM (≈ 30.3 µg/mL) and an IC50 at 72 h [3] of over 10 µg/mL.

In the case of `Cc1ccc(C(=O)Nc2ccc3c(c2)B(O)OC3C)cc1` (centres unmarked) [compound 7, N-(1-Hydroxy-3-methyl-1,3-dihydro-benzo[c][1,2]oxaborol-6-yl)-4-methyl-benzamide], the “Selectivity Index (L929 IC50 / T. b. brucei IC50)” value [1] is reported as 137, the IC50 ([1]; read-out: T. b. brucei IC50) is reported as 146 nM and the IC50 ([1]; read-out: T.b. brucei IC50) is reported as 0.041 µg/mL. The solubility at 90 min [2] was 100 µM (≈ 28.1 µg/mL) and the IC50 at 72 h [3] was 5.61 µg/mL (≈ 20 µM).

For `O=C(Nc1ccc2c(c1)B(O)OC2C1CCCC1)c1ccccc1C(F)(F)F` (centres unmarked) [compound 17, N-(3-Cyclopentyl-1-hydroxy-1,3-dihydro-benzo[c][1,2]oxaborol-6-yl)-2-trifluoromethyl-benzamide], the “Selectivity Index (L929 IC50 / T. b. brucei IC50)” value [1] was over 15, the IC50 ([1]; read-out: T. b. brucei IC50) was 1680 nM and the IC50 ([1]; read-out: T.b. brucei IC50) was 0.655 µg/mL. It also gave a solubility at 90 min [2] of 25 µM (≈ 9.73 µg/mL) and an IC50 at 72 h [3] of over 10 µg/mL.

In the case of `CC1OB(O)c2cc(NC(=O)c3ccccc3F)ccc21` (centres unmarked) [compound 8, 2-Fluoro-N-(1-hydroxy-3-methyl-1,3-dihydro-benzo[c][1,2]oxaborol-6-yl)-benzamide], the “Selectivity Index (L929 IC50 / T. b. brucei IC50)” value [1] is reported as 84, the IC50 ([1]; read-out: T. b. brucei IC50) is reported as 246 nM and the IC50 ([1]; read-out: T.b. brucei IC50) is reported as 0.07 µg/mL. For the same molecule, the solubility at 90 min [2] was 50 µM (≈ 14.3 µg/mL) and the IC50 at 72 h [3] was 5.86 µg/mL (≈ 20.6 µM).

With `O=C(Nc1ccc2c(c1)B(O)OC2)c1ccc(F)cc1C(F)(F)F` [E19, 4-Fluoro-N-(1-hydroxy-1,3-dihydro-benzo[c][1,2]oxaborol-6-yl)-2-trifluoromethyl-benzamide] the half-life ([4]; male, CD-1, mouse, 25 mg/kg, brain, oral, mice) was 2.3 h, the CL/F ([4]; male, CD-1, mouse, 25 mg/kg, plasma, oral, mice, read-out: Oral Clearance Cl/F (converted)) was 3.83 mL/min/kg and the half-life ([4]; male, CD-1, mouse, 25 mg/kg, plasma, oral, mice) was 17.1 h. It also gave a Cmax [4, 6] of 6100 ng/mL, an AUC(0-t) [4, 6] of 13100 ng·h/mL and an AUC(0-inf) [4, 6] of 13200 ng·h/mL. It also gave a Cmax [4, 7] of 10000 ng/mL, an AUC(0-t) [4, 7] of 70600 ng·h/mL and an AUC(0-inf) [4, 7] of 109000 ng·h/mL. The “brain concentrations relative to the MIC” value ([4]; mouse and rat, brain (and CSF)) was “decrease rapidly to levels below the MIC within a few hours after dosing”, the “dose proportionality of brain exposure” value ([4]; oral delivery to mice) was “generally dose-proportional increases” and the “dose proportionality of plasma exposure” value ([4]; oral delivery to mice) was “greater than proportional at doses above 20 mg/kg”. For the same molecule, the “F (% of IV)” value ([4]; plasma, oral, mice) was 26%, the “plasma PK when administered to rodents” value ([4]; rodents, plasma) was “good exposure (AUC and Cmax), promising bioavailability, prolonged half-life, and low clearance” and the half-life ([5]; male, Sprague Dawley, rat, 25 mg/kg, CSF, oral, rats) was 3.1 h. The half-life ([5]; male, Sprague Dawley, rat, 25 mg/kg, brain, oral, rats) was 2.6 h, the CL/F ([5]; male, Sprague Dawley, rat, 25 mg/kg, plasma, oral, rats, read-out: Oral Clearance Cl/F (converted)) was 4.35 mL/min/kg and the half-life ([5]; male, Sprague Dawley, rat, 25 mg/kg, plasma, oral, rats) was 8.1 h. For the same molecule, the Cmax [5, 8] was 1200 ng/mL, the AUC(0-t) [5, 8] was 3800 ng·h/mL and the AUC(0-inf) [5, 8] was 3900 ng·h/mL. The Cmax [5, 9] was 2500 ng/mL, the AUC(0-t) [5, 9] was 12700 ng·h/mL and the AUC(0-inf) [5, 9] was 12700 ng·h/mL. For the same molecule, the Cmax [5, 10] was 12300 ng/mL, the AUC(0-t) [5, 10] was 98300 ng·h/mL and the AUC(0-inf) [5, 10] was 102000 ng·h/mL. The “time levels in brain and CSF are above the in vitro MIC” value ([5]; nominal single oral dose of 25 mg/kg to rats) was 4 h, the “F (% of IV)” value ([5]; plasma, oral, rats) was 123.0% and the “dose proportionality of exposure in plasma, brain and CSF” value ([5]; rats) was “increase in a generally proportional manner with dose”.

With `Cc1ccc(F)c(C(=O)Nc2ccc3c(c2)B(O)OC3(C)C)c1Cl` [compound 107, 2-Chloro-6-fluoro-N-(1-hydroxy-3,3-dimethyl-1,3-dihydro-benzo[c][1,2]oxaborol-6-yl)-3-methyl-benzamide] the IC50 ([1]; read-out: T.b. brucei IC50) was 0.566 µg/mL, the solubility at 90 min [2] was 4.3 µM (≈ 1.49 µg/mL) and the IC50 at 72 h [3] was over 10 µg/mL.

`O=C(Nc1ccc2c(c1)B(O)OC21CCCC1)c1ccc(F)cc1C(F)(F)F` [compound 136] gave an IC50 ([1]; read-out: T. b. brucei IC50) of over 12700 nM, an IC50 ([1]; read-out: T.b. brucei IC50) of over 5 µg/mL and a solubility at 90 min [2] of 25 µM (≈ 9.83 µg/mL). The IC50 at 72 h [3] was over 10 µg/mL.
